B1: PDGF-BB: recombinant human platelet derived growth factor-BB, pro-fibrotic cytokine (BioVision) (protein, UniProt P01127 82-190, looked up)
Platelet-derived growth …: SLGSLTIAEPAMIAECKTRTEVFEISRRLIDRTNANFLVWPPCVEVQRCSGCCNNRNVQCRPTQVQLRPVQVRKIEIVRKKPIFKKATVTLEDHLACKCETVAAARPVT

Tests used:
[1] = system: GFAP-lacZ expression in T6/lacZ/C1 cells; test: X-gal staining of T6/lacZ/C1 cells treated with TGF-β1, PDGF-BB and LPS; type: cell-based, rat; settings: 0.1 to 10 ng/ml, full DMEM, 72 hours, X-gal one hour
Procedure: A lacZ reporter assay kit for cell staining (InvivoGen, CA, USA) was used to detect the reporter gene activity in both stable and transient transfectants. Development of the blue end product was monitored at different time intervals (15, 30, 60, 90, and 120 minutes). The staining results were documented with a digital camera (DP12) attached to an Olympus inverted bright field microscope (IX51).
To determine possible induction of GFAP-lacZ expression by molecules with pro-fibrotic and proinflammatory properties in activated HSC the T6/lacZ/C1 cells were treated with TGF-β1, PDGF-BB and LPS respectively at various concentrations (0, 0.1, 1 and 10 ng/ml) in the full DMEM medium for 72 hours. The cells were then stained with X-gal for one hour and photographed. […] In order to obtain truly quantitative data, a solution assay was employed to measure possible up-regulation of β-galactosidase activity by TGF-β1 in experiments below.

[2] = system: 2.2 kb hGFAP-lacZ transgene in T6/lacZ/C1 cells; test: quantitative solution assay of β-galactosidase activity in T6/lacZ/C1 cells; type: cell-based, rat
Procedure: To quantify the β-galactosidase activity in cell extracts reported in FIGS. 4 to 10, an enzyme assay kit (E2000, Promega, Wis., USA) was used to measure the specific activity of P-galactosidase, according to the manufacturer's instructions in a 96-well format. Briefly, the cells were washed twice with 1×PBS buffer (pH7.4), lysed for 15 minutes at room temperature with the reporter lysis buffer, and harvested using a cell scraper. The total cell extracts were appropriately diluted (5-10 fold), and assayed for the enzyme activity. The specific β-galactosidase activity was expressed in milliunit per milliliter (mU/ml) using a standard curve established from the β-galactosidase standard (provided with the kit). The protein concentration was measured with a BCA protein assay kit (Pierce, Ill., USA), and used to further convert the specific β-galactosidase activity from mU/ml to mU/μg total cellular protein. Six independent experiments were performed for each time and concentration data point.
(§1) Cells were seeded into 12-well plates in full DMEM and 500 μg/ml Zeocin. Twelve hours prior to the cytokine treatment, medium was changed so that the cells were allowed to grow in low serum (0.5% FBS) DMEM. The cells at a confluence of 70-80% were incubated with various concentrations (0, 0.1, 1 and 10 ng/ml) of recombinant human TGF-β1, PDGF-BB (BioVision, CA, USA) and 0, 0.1, 1 and 10 μg/ml lipopolysaccharide (LPS E. coli, Sigma) respectively for 0, 2, 8, 16, 24, 48 and 72 hours before they were harvested for β-galactosidase activity assay and real-time RT-PCR GFAP assay.
To quantify specific transgene response to TGF-β1, we first set up an experiment to assess possible effects that serum concentration and culture duration may have on the transgene expression. T6/lacZ/C1 cells were initially grown in DMEM with high serum (10% FBS), and then some of the cells were starved with a DMEM with low serum (0.5% FBS) for 12 hours prior to the addition of TGF-β1 (1 ng/ml). After incubation for various times (0, 2, 8, 24, 48 and 72 hours), cells were harvested for β-galactosidase activity assay. […] After 72 hours, the level slipped to 58% of the value at 0 hour (P<0.001). The assay results were depicted in FIG. 8.
To further dissect the TGF-β1 contribution to the transgene induction, we treated T6/lacZ/C1 cells grown in low serum with various concentrations of TGF-β1 (0, 0.1, 1, 10 ng/ml) and assayed the enzymatic activity for three time points (24, 48 and 72 hours). The assay results were plotted in FIG. 9. […] When the non-treatment groups were normalized to 1 and the magnitude of induction were plotted for the 10 ng/ml treatment groups at all three time points (FIG. 10), a trend of increasing induction with time was apparent.

endogenous rat GFAP mRNA [3] = test: real-time RT-PCR for endogenous rat GFAP mRNA in T6/lacZ/C1 cells; type: cell-based
Procedure: as §1
Total RNA was reverse transcribed to cDNA using Taqman's reverse transcription reagent (Cat. #N8O8-0234A total of 400 ng of RNA in 7.7 μl nuclease-free water was added to 2 μl 10× reverse transcriptase buffer, 4.4 μl 25 mM magnesium chloride, 4 μl deoxyNTP mixtures, 1 μl random hexamers, 0.4 μl RNase inhibitor and 0.5 μl reverse transcriptase (50 U/μl) in a final reaction volume of 20 μl. The reaction was performed for 10 min at 25° C. (annealing), 30 min at 48° C. (cDNA synthesis) and 5 min at 95° C. (enzyme denaturation).
Real-time quantitative PCR was carried out with an ABI 7500 Real Time PCR System (Applied Biosystems, CA, USA). One microliter of sample cDNA was used in each PCR reaction, with the housekeeping β-actin gene as a reference for normalization. The primers and probes for rat β-actin and GFAP were purchased from Taqman's assay-on-demand database. […]
(§2) Relative quantitation of the target mRNA was calculated using the comparative threshold cycle (CT) methods as described in the User Bulletin #2 (ABI Prism 7700 Sequence Detection System). CT indicates the fractional cycle number at which the amount of amplified target reaches a fixed threshold within the linear phase of gene amplification. ΔCT, which reflects the difference between CT target and CT β-actin, is inversely correlated to the abundance of mRNA transcripts in the samples. ΔCT for each sample was normalized against control experiment or calibrator and expressed as ΔΔCT. Relative quantitation is given by 2^−ΔΔCT to express the up-regulation or down regulation of the target gene under the treatments compared to the control. Six independent experiments were performed for each data point and three ACT were measured for each experiment.
It was known that GFAP, along with desmin, SMAA, and vimentin, was expressed in the clonal T6 cells (Vogel et al. (2000), J Lipid Res. 41(6):882). […] In order to investigate how the endogenous GFAP expression is regulated by TGF-β1 in the T6/lacZ/C1 cells during different time course, we quantified rat GFAP mRNA level using a real-time RT-PCR method. […] Total RNA was isolated from different cells and quantified as described in Materials and Methods, and the results were depicted in FIG. 11.

GFAP-lacZ transgene = test: chemiluminescent β-galactosidase activity assay of GFAP-lacZ transgene expression in T6/GFAP-lacZ cells; type: cell-based, rat; settings: 10 ng/ml PDGF-BB, 48 hours, low serum DMEM
Procedure: (§3) Cells were initially seeded in 12-well plates in DMEM supplemented with 10% FBS and weaned to a low serum DMEM (0.5% FBS) at a confluence of 70-80% for 12 hours of adaptation. Cells were then incubated with different concentrations of compounds for various amounts of time before being assayed for β-galactosidase activity and GFAP mRNA. For compound attenuation studies, cells were treated with a pro-fibrotic cytokine (TGF-β1 or PDGF-BB) either sequentially or concurrently with a compound (EGCG or genistein). In the sequential scheme, cells were first treated with a cytokine for 1-3 days, then the cytokine-containing culture medium was replaced with a fresh medium containing a particular compound only for various times. Details of the cytokine/compound treatments can be found in the individual figure legends.
A lacZ reporter assay kit for cell staining (InvivoGen, CA, USA) was used to detect the reporter gene activity in T6/GFAP-lacZ cells treated with EGCG or genistein. The staining results were documented with a digital camera (DP12) attached to an Olympus inverted bright field microscope (IX51) after development for 60 min. For quantification, the β-galactosidase activity in cell extracts was measured using a chemiluminescent assay kit (Roche, Mannheim, Germany) in a 96-well plate format, according to the manufacturer's instructions. Briefly, cells were washed twice with ice-cold 1×PBS (pH 7.4), lysed for 30 minutes at room temperature with the lysis buffer, and supernatant was collected for assays. Protein concentration was determined with a BCA protein assay kit (Pierce, Ill., USA). Specific β-galactosidase activity was obtained by normalizing against total cellular protein content.

endogenous rat GFAP mRNA [4] = test: real-time RT-PCR for endogenous rat GFAP mRNA in T6/GFAP-lacZ cells; type: cell-based; settings: 10 ng/ml PDGF-BB, 24 hours, low serum DMEM
Procedure: as §3
Total RNA was reverse-transcribed to cDNA using Taqman's reverse transcription reagent (Applied Biosystems, CA, USA). A total of 200 ng of RNA in 7.7 μl of nuclease-free water was added to 2 μl 10× reverse transcriptase buffer, 4.4 μl 25 mM magnesium chloride, 4 μl deoxyNTP mixtures, 1 μl random hexamers, 0.4 μl RNase inhibitor and 0.5 μl reverse transcriptase (50 U/μl) in a final reaction volume of 20 μl. The reaction was performed for 10 min at 25° C. (annealing), 30 min at 48° C. (cDNA synthesis) and 5 min at 95° C. (enzyme denaturation).
Real-time quantitative PCR was carried out with an ABI 7500 Fast Real-time PCR System (Applied Biosystems, CA, USA). Two micro liters of sample cDNA were used in each PCR reaction, with β-actin gene as a reference for normalization. The primers and probes for rat β-actin and GFAP were ordered from Taqman's assay-on-demand database. The PCR reaction was performed under a default profile consisting of 95° C. for 20 seconds (enzyme denaturation) and 40 cycles of amplification (denaturation 3 seconds, annealing and extension 30 seconds). Some of the real-time RT-PCR reactions were separated on an agarose gel for visual confirmation of discrete products (data not shown).
as §2, with “samples. ACT” for “samples. ΔCT”, “or down-regulation” for “or down regulation”, “control.” for “control. Six independent experiments were performed for each data point and three ACT were measured for each experiment.”

[5] = 10 ng/ml TGF-β1, low serum, 72 hours

Row | Molecule | X-gal blue staining compared to the untreated [1] | specific β-galactosidase activity ([2]; 1 ng/ml TGF-β1, 0.5% FBS, 24 hour (peak)) | transgene expression level relative to 0 hour ([2]; 1 ng/ml TGF-β1, 0.5% FBS, 48 hours) | transgene expression level, % of the value at 0 hour ([2]; 1 ng/ml TGF-β1, 0.5% FBS, 72 hours) | induction of β-galactosidase activity ([2]; 10 ng/ml TGF-β1, low serum, 24, 48 and 72 hours) | absolute enzymatic (β-galactosidase) activity [2, 5] | magnitude of induction of β-galactosidase activity vs non-treatment group (normalized to 1) [2, 5] | GFAP mRNA level relative to basal level at 0 hour (normalized to 1) (endogenous rat GFAP mRNA [3]; 1 ng/ml TGF-β1, 16 hour) | GFAP mRNA level relative to basal level at 0 hour (normalized to 1) (endogenous rat GFAP mRNA [3]; 1 ng/ml TGF-β1, 48 hours) | GFAP mRNA level relative to basal level at 0 hour (normalized to 1) (endogenous rat GFAP mRNA [3]; 1 ng/ml TGF-β1, 72 hours) | GFAP mRNA level relative to basal level (endogenous rat GFAP mRNA [3]; 1 ng/ml TGF-β1, within the first 24 hours (except 16 hour)) | induction of transgenic GFAP-lacZ expression (GFAP-lacZ transgene) | induction of endogenous GFAP (endogenous rat GFAP mRNA [4])
1 | TGF-β1: recombinant human transforming growth factor-β1, pro-fibrotic cytokine (BioVision) | more intense blue staining | 0.52 mU/μg | dropped to the same level as at 0 hour | 58% | Significant induction | 0.43 mU/μg | nearly two fold | 0.5 fold | 7 fold | 8.5 fold | remained steady |  | 
2 | B1 | less pronounced response |  |  |  |  |  |  |  |  |  |  | 24% | 53%
